From BindingDB's records for PubMed 36395995 (University of Jinan, 2023)
pIC50: −log10 of the molar value.

Target: Maltase-glucoamylase (Homo sapiens, UniProt O43451)
Assay: Inhibition of alpha-glucosidase (unknown origin)

Maltase-glucoamylase, sequence (O43451 whole entry): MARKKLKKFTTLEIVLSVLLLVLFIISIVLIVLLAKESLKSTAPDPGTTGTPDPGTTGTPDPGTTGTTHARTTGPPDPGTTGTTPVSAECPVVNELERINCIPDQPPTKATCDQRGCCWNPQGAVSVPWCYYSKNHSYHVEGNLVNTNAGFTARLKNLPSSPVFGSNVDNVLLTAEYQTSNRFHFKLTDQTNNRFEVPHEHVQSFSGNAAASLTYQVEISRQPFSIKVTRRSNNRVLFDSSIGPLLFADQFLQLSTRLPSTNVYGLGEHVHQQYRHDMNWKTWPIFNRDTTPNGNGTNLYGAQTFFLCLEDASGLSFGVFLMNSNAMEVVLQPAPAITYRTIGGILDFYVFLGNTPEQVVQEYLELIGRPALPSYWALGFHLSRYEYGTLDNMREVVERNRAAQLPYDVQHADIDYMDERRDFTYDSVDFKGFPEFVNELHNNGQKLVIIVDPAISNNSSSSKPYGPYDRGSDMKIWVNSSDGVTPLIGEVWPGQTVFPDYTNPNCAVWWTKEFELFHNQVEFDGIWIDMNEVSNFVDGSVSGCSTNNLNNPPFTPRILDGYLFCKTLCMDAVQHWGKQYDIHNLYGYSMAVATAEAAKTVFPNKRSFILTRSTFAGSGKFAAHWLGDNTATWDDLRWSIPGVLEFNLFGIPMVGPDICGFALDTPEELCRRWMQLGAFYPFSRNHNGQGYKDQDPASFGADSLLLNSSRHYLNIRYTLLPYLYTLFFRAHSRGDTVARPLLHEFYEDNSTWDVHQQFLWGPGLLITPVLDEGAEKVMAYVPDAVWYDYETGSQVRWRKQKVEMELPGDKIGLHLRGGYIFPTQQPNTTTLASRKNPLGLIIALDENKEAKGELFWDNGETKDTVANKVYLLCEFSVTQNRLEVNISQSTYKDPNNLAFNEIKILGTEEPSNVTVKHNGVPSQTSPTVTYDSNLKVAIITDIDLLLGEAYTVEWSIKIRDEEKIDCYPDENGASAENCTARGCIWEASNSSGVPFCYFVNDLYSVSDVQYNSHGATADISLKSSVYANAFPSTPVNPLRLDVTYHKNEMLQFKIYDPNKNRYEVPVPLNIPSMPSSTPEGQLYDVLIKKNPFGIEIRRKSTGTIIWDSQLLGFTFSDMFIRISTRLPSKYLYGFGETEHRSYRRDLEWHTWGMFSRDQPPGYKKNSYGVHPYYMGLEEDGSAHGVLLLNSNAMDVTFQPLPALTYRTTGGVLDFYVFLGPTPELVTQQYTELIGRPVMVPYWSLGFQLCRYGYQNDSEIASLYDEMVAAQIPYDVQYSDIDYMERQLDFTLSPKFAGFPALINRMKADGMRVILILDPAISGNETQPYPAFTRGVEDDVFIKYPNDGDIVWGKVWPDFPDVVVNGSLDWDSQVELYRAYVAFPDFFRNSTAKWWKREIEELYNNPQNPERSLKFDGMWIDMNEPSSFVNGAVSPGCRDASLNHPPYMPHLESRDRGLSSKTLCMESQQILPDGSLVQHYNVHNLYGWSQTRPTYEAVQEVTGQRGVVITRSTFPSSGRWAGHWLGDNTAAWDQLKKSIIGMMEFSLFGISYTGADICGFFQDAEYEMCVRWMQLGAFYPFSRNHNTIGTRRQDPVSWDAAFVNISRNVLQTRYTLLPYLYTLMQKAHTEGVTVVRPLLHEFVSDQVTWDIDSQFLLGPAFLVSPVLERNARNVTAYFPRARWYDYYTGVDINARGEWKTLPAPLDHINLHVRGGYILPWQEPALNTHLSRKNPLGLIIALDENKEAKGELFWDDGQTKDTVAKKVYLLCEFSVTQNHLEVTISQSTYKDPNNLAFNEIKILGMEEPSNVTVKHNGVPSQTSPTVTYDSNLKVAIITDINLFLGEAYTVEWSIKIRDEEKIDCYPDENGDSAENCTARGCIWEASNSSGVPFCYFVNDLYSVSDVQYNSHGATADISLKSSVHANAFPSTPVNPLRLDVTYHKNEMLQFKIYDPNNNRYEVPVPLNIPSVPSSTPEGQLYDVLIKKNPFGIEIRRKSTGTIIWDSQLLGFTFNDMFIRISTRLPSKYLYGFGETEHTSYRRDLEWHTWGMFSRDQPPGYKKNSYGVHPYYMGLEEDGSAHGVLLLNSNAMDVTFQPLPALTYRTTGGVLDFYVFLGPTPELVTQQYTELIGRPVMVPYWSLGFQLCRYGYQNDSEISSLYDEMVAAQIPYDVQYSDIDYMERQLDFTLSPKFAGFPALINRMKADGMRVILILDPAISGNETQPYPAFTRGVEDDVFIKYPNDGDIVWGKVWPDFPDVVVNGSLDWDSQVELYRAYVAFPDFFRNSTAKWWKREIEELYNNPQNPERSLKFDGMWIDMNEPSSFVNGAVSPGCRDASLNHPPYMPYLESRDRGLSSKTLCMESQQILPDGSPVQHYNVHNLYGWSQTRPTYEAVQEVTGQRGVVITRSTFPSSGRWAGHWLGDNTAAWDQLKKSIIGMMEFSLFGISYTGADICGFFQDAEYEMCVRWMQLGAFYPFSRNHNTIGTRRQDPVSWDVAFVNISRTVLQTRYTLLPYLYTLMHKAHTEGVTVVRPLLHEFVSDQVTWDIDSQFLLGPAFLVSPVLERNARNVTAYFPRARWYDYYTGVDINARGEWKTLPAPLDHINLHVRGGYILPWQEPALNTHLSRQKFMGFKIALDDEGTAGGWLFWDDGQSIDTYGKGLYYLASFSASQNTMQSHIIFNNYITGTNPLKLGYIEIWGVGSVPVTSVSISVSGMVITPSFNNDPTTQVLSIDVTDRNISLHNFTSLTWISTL

SMILES | pIC50
O=C(Nc1sc2c(c1C(=O)NCc1ccccc1)CCC2)c1cccnc1 | 4.08
COc1ccc(CNC(=O)c2c(NC(=O)c3cccnc3)sc3c2CCCC3)cc1 | 4.52
O=C(Nc1sc2c(c1C(=O)NCc1ccccn1)CCCC2)c1cccnc1 | 4.19
COc1cc(CNC(=O)c2c(NC(=O)c3cccnc3)sc3c2CCC3)ccc1O | 4.03
O=C(Nc1sc2c(c1C(=O)NCc1cccnc1)CCCC2)c1cccnc1 | 3.29

Further compounds by rising pIC50, results first:

pIC50 | SMILES
4.06 | COC(=O)c1ccc(CNC(=O)c2c(NC(=O)c3cccnc3)sc3c2CCCC3)cc1
4.06 | COc1ccc(CNC(=O)c2c(NC(=O)c3cccnc3)sc3c2CCC3)cc1
4.20 | O=C(Nc1sc2c(c1C(=O)NCc1ccccc1)CCCCC2)c1cccnc1
4.34 | O=C(Nc1sc2c(c1C(=O)NCc1ccccc1)CCCC2)c1cccnc1
4.45 | COc1cc(CNC(=O)c2c(NC(=O)c3cccnc3)sc3c2CCCCC3)ccc1O
5.00 | COc1cc(CNC(=O)c2c(NC(=O)c3cccnc3)sc3c2CCCC3)ccc1O
